From patent US20130217664A1, “NOVEL COMPOUNDS USEFUL FOR THE TREATMENT OF DEGENERATIVE AND INFLAMMATORY DISEASES” (priority 2012, published 2013)
Read-outs that look alike come from different tables or passages of the source.

Columns and labels:
human JAK3 = biological target: T1, human JAK3 (Homo sapiens, UniProt P52333); test: JAK3 inhibition assay; format: biochemical; conditions: recombinant human JAK3 catalytic domain; polyGT substrate
T1 construct: catalytic domain (amino acids 781-1124; catalog number PV3855); purchased Invitrogen PV3855
Procedure, shortened: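 Radiometric kinase assay: 0.5 ng JAK3 with 2.5 μg polyGT in Tris pH 7.5/MgCl2 buffer, 1 μM ATP plus 0.25 μCi 33P-γ-ATP, 1% DMSO, 45 min at 30 °C, stopped with phosphoric acid.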

human TYK2 = biological target: T2, human TYK2 (Homo sapiens, UniProt P29597); test: TYK2 inhibition assay; format: biochemical; conditions: recombinant human TYK2 catalytic domain, polyGT substrate
T2 construct: catalytic domain (amino acids 871-1187; catalog number 08-147); purchased Carna Biosciences 08-147
T2 sequence (P29597 871-1187): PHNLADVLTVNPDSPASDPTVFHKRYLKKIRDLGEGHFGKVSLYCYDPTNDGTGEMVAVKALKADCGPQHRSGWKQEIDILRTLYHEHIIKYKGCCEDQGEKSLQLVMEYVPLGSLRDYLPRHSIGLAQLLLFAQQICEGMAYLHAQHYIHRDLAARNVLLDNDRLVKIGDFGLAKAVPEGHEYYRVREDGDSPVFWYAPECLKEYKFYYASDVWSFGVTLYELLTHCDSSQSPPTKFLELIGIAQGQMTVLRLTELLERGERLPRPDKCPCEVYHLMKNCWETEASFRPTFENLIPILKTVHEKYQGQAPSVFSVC
Procedure, shortened: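 Radiometric kinase reaction run 90 min at 30 °C, stopped with phosphoric acid, washed and scintillation-counted.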

human JAK1 = biological target: T3, human JAK1 (Homo sapiens, UniProt P23458); test: JAK1 inhibition assay (polyGT substrate / Ulight-JAK1 peptide); format: biochemical; conditions: recombinant human JAK1 catalytic domain; polyGT or Ulight-JAK1 peptide assay
T3 construct: catalytic domain, amino acids 866-1154; catalog number PV4774; purchased Invitrogen PV4774
Procedure, shortened: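 Signal scaled between vehicle and 10 μM staurosporine. Radiometric polyGT reactions ran 45 min at 30 °C, counted after phosphoric-acid stop. Ulight peptide reactions ran 60 min at room temperature, fluorescence read after adding Eu-PT66 detection mix with EDTA.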

[1] = system: pSTAT1(2)-luciferase reporter in HeLa cells triggered with human OSM; test: JAK-STAT signalling assay; format: cell-based; conditions: HeLa cells, pSTAT1(2)-luciferase reporter, human OSM 33 ng/mL, read-out: JAK-STAT IC50
Procedure, shortened: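 Compound added 60 min before 33 ng/mL (final) human OSM; after overnight stimulation at 37 °C, luciferase signal from a transiently transfected pSTAT1(2) reporter in HeLa cells was read, with LacZ as internal control. EC50 derived from percent-inhibition dose-response curves.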

T3 sequence (P23458 866-1154): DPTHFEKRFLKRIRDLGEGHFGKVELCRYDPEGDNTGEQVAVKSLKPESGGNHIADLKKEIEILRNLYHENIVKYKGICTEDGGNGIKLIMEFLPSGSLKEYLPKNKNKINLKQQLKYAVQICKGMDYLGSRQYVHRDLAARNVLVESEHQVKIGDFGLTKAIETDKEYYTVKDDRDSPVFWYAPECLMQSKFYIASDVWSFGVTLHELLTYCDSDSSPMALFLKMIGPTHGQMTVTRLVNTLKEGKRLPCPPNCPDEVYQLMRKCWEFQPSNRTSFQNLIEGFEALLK
T1 sequence (P52333 781-1124): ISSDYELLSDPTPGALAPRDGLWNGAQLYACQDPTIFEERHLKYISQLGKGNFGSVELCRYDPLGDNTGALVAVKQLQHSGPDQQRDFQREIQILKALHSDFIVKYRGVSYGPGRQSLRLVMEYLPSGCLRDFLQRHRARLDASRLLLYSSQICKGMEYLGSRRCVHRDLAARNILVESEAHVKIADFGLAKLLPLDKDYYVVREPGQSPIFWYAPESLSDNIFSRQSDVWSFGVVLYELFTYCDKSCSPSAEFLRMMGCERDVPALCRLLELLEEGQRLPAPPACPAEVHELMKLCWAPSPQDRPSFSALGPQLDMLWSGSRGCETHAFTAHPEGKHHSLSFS

SMILES	IC50 (human JAK3)	IC50 (human TYK2)	IC50 (human JAK1)	IC50 ([1]; Homo sapiens, HeLa)	IC50 [1]
CCc1cc(-c2noc(CC#N)n2)ccc1N(C)c1cc2c(cn1)ncn2C [Compound 148, 2-(3-(3-ethyl-4-(methyl(1-methyl-1H-imidazo[4,5-c]pyridin-6-yl)amino)phenyl)-1,2,4-oxadiazol-5-yl)acetonitrile]	501 to 1000 nM	0.01 to 100 nM	0.01 to 100 nM	501 to 1000 nM	–
CCc1cc(C2=CCN(C(=O)[C@H](C)O)CC2)ccc1N(C)c1cc2c(cn1)ncn2C [Compound 251, (S)-1-(4-(3-ethyl-4-(methyl(1-methyl-1H-imidazo[4,5-c]pyridin-6-yl)amino)phenyl)-5,6-dihydropyridin-1(2H)-yl)-2-hydroxypropan-1-one]	101 to 500 nM	0.01 to 100 nM	0.01 to 100 nM	1 to 500 nM	–
CCc1cc(-c2cnn(Cc3ccc(F)cc3)c2)ccc1N(C)c1cc2c(cn1)ncn2C [Compound 238, N-(2-ethyl-4-(1-(4-fluorobenzyl)-1H-pyrazol-4-yl)phenyl)-N,1-dimethyl-1H-imidazo[4,5-c]pyridin-6-amine]	101 to 500 nM	0.01 to 100 nM	0.01 to 100 nM	1 to 500 nM	–
CCc1cc(-c2cnn(Cc3ccc(OC)cc3)c2)ccc1N(C)c1cc2c(cn1)ncn2C [Compound 208, N-(2-ethyl-4-(1-(4-methoxybenzyl)-1H-pyrazol-4-yl)phenyl)-N,1-dimethyl-1H-imidazo[4,5-c]pyridin-6-amine]	101 to 500 nM	0.01 to 100 nM	0.01 to 100 nM	1 to 500 nM	–
CCc1cc(-c2cnc(NC)nc2)ccc1N(C)c1cc2c(cn1)ncn2C [Compound 211, N-(2-Ethyl-4-(2-(methylamino)pyrimidin-5-yl)phenyl)-N,1-dimethyl-1H-imidazo[4,5-d]pyridin-6-amine]	501 to 1000 nM	0.01 to 100 nM	0.01 to 100 nM	501 to 1000 nM	–
CCc1cc(C2=CCN(C(=O)NC#N)CC2)ccc1N(C)c1cc2c(cn1)ncn2C [Compound 203, N-cyano-4-(3-ethyl-4-(methyl(1-methyl-1H-imidazo[4,5-c]pyridin-6-yl)amino)phenyl)-5,6-dihydropyridine-1(2H)-carboxamide]	0.01 to 100 nM	0.01 to 100 nM	0.01 to 100 nM	> 1000 nM	–
CCc1cc(-c2cnn(Cc3ccc(C)cc3)c2)ccc1N(C)c1cc2c(cn1)ncn2C [Compound 237, N-(2-ethyl-4-(1-(4-methylbenzyl)-1H-pyrazol-4-yl)phenyl)-N,1-dimethyl-1H-imidazo[4,5-c]pyridin-6-amine]	101 to 500 nM	0.01 to 100 nM	0.01 to 100 nM	1 to 500 nM	–
CCc1cc(-c2noc(CCC#N)n2)ccc1N(C)c1cc2c(cn1)ncn2C [Compound 156, 3-(3-(3-Ethyl-4-(methyl(1-methyl-1H-imidazo[4,5-c]pyridin-6-yl)amino)phenyl)-1,2,4-oxadiazol-5-yl)propanenitrile]	> 1000 nM	0.01 to 100 nM	0.01 to 100 nM	501 to 1000 nM	–
CCc1cc(-c2nnc(C)o2)ccc1N(C)c1cc2c(cn1)ncn2C [Compound 177, N-(2-Ethyl-4-(5-methyl-1,3,4-oxadiazol-2-yl)phenyl)-N,1-dimethyl-1H-imidazo[4,5-d]pyridin-6-amine]	> 1000 nM	0.01 to 100 nM	0.01 to 100 nM	501 to 1000 nM	–
CCc1cc(C2CCN(C(=O)COC)CC2)ccc1N(C)c1cc2c(cn1)ncn2C [Compound 226, 1-(4-(3-ethyl-4-(methyl(1-methyl-1H-imidazo[4,5-c]pyridin-6-yl)amino)phenyl)piperidin-1-yl)-2-methoxyethanone]	101 to 500 nM	0.01 to 100 nM	0.01 to 100 nM	–	> 1000 nM
CCc1cc(CN2CCS(=O)(=O)CC2)ccc1N(C)c1cc2c(cn1)ncn2C [Compound 143, [4-(1,1-Dioxothiomorpholin-4-ylmethyl)-2-ethyl-phenyl]-methyl-(1-methyl-1H-imidazo[4,5-c]pyridin-6-yl)-amine]	501 to 1000 nM	501 to 1000 nM	0.01 to 100 nM	> 1000 nM	–
CCc1cc(-c2ccc(O)nc2)ccc1N(C)c1cc2c(cn1)ncn2C [Compound 132, 5-(3-Ethyl-4-(methyl(1-methyl-1H-imidazo[4,5-c]pyridin-6-yl)amino)phenyl)pyridin-2-ol]	101 to 500 nM	0.01 to 100 nM	0.01 to 100 nM	501 to 1000 nM	–
CCc1cc(CNCC#N)ccc1N(C)c1cc2c(cn1)ncn2C [Compound 149, 2-(3-ethyl-4-(methyl(1-methyl-1H-imidazo[4,5-c]pyridin-6-yl)amino)benzylamino) acetonitrile]	101 to 500 nM	0.01 to 100 nM	0.01 to 100 nM	> 1000 nM	–
CN(c1cc2c(cn1)ncn2C)c1ccc(C2CCN(S(C)(=O)=O)CC2)cc1OC(F)F [Compound 287, N-(2-(Difluoromethoxy)-4-(1-(methylsulfonyl)piperidin-4-yl)phenyl)-N,1-dimethyl-1H-imidazo[4,5-c]pyridin-6-amine]	0.01 to 100 nM	0.01 to 100 nM	0.01 to 100 nM	–	1 to 500 nM
COc1cc(C2CCN(S(C)(=O)=O)CC2)ncc1N(C)c1cc2c(cn1)ncn2C [Compound 276]	> 1000 nM	> 1000 nM	0.01 to 100 nM	–	> 1000 nM
COc1cc(C2CCN(C(=O)CC#N)CC2)ncc1N(C)c1cc2c(cn1)ncn2C [Compound 265]	> 1000 nM	> 1000 nM	501 to 1000 nM	–	> 1000 nM
CCc1cc(C2=CCN(C(=O)C(C)(C)O)CC2)ccc1N(C)c1cc2c(cn1)ncn2C [Compound 231, 1-(4-(3-ethyl-4-(methyl(1-methyl-1H-imidazo[4,5-c]pyridin-6-yl)amino)phenyl)-5,6-dihydropyridin-1(2H)-yl)-2-hydroxy-2-methylpropan-1-one]	101 to 500 nM	0.01 to 100 nM	0.01 to 100 nM	1 to 500 nM	–
CCc1cc(-c2noc(C)n2)ccc1N(C)c1cc2c(cn1)ncn2C [Compound 147, N-(2-ethyl-4-(5-methyl-1,2,4-oxadiazol-3-yl)phenyl)-N,1-dimethyl-1H-imidazo[4,5-c]pyridin-6-amine]	> 1000 nM	0.01 to 100 nM	0.01 to 100 nM	501 to 1000 nM	–
CCc1cc(-c2cnn(Cc3ccc(Cl)cc3)c2)ccc1N(C)c1cc2c(cn1)ncn2C [Compound 239, N-(4-(1-(4-chlorobenzyl)-1H-pyrazol-4-yl)-2-ethylphenyl)-N,1-dimethyl-1H-imidazo[4,5-c]pyridin-6-amine]	101 to 500 nM	101 to 500 nM	0.01 to 100 nM	1 to 500 nM	–
CN(c1cc2c(cn1)ncn2C)c1ccc(C2CN(S(C)(=O)=O)C2)cc1F [Compound 277, [2-Fluoro-4-(1-methanesulfonyl-azetidin-3-yl)-phenyl]-methyl-(1-methyl-1H-imidazo[4,5-c]pyridin-6-yl)-amine]	101 to 500 nM	501 to 1000 nM	0.01 to 100 nM	–	> 1000 nM
CCc1cc(CNC(=O)NC)ccc1N(C)c1cc2c(cn1)ncn2C [Compound 270, 1-(3-ethyl-4-(methyl(1-methyl-1H-imidazo[4,5-c]pyridin-6-yl)amino)benzyl)-3-methylurea]	> 1000 nM	> 1000 nM	101 to 500 nM	> 1000 nM	–
CCOc1ccc(N(C)c2cc3c(cn2)ncn3C)c(CC)c1 [Compound 272, N-(4-ethoxy-2-ethylphenyl)-N,1-dimethyl-1H-imidazo[4,5-c]pyridin-6-amine]	501 to 1000 nM	0.01 to 100 nM	0.01 to 100 nM	501 to 1000 nM	–
CCc1cc(-c2cnccn2)ccc1N(C)c1cc2c(cn1)ncn2C [Compound 144, N-(2-ethyl-4-(pyrazin-2-yl)phenyl)-N,1-dimethyl-1H-imidazo[4,5-c]pyridin-6-amine]	501 to 1000 nM	0.01 to 100 nM	0.01 to 100 nM	> 1000 nM	–
CCc1cc(C2=CCN(S(=O)(=O)C(C)C)CC2)ccc1N(C)c1cc2c(cn1)ncn2C [Compound 246, N-(2-ethyl-4-(1-(isopropylsulfonyl)-1,2,3,6-tetrahydropyridin-4-yl)phenyl)-N,1-dimethyl-1H-imidazo[4,5-c]pyridin-6-amine]	0.01 to 100 nM	0.01 to 100 nM	0.01 to 100 nM	1 to 500 nM	–
